Entries after “also recorded” stand apart in the source; their conditions may differ. Where two headings read alike, the source gives them in different places.

Experimental findings from patent US20250171762A1, “THERAPEUTICAL PEPTIDOMIMETIC” (UNIVERSITA' DEGLI STUDI DI ROMA "LA SAPIENZA", priority 2021, published 2025) are described below.

The nature of series [1]: Plasma stability: incubation in human plasma, UPLC-MS quantification. The note with it: for remaining at 3 h, 0.2 mM: read-out: peptide available after incubation in plasma. It is filed as in vitro ADME. As to the method:
Panel B. Time course decay of β32_33, PMT, PMT-8a and PMT-8b incubated up to 72 h with human plasma from four healthy subjects. […] The Y axis indicates the signal intensity of the four peptides. Samples of plasma were obtained from healthy volunteers and immediately used for the analysis. Either β32_33 peptide or PMT for the experiment in panel A, and β32_33 peptide, PMT, PMT-8a or PMT-8b for the experiment in panel B, was incubated in plasma at a final concentration of 0.2 mM, at 37° C., up to 3 h (A) or 72 h (B). At the indicated time points, i.e., T0 and 3 h (A) or T0, 1.5, 3, 6 and 72 h (B), aliquots of 200 μL were treated with 3 volumes of acetonitrile containing 1% formic acid and extracted by a solid phase extraction system to remove proteins and phospholipids. Samples were dried under vacuum, resuspended in 100 μL of 0.1% formic acid containing 5% acetonitrile, and analyzed with a Water Acquity H-Class UPLC system equipped with a single-quadruple mass detector with electrospray ionization source. Samples were separated onto a reverse phase C18 column by performing a gradient with two mobile phases consisting of 0.1% formic acid in water and 0.1% formic acid in acetonitrile at a flow rate of 0.5 mL/min. Quantification was performed by Selected lon Recording (SIR): at m/z=917.88, corresponding to the [M+2 H]^2+ion obtained from either β32_33 or PMT; at m/z=961.42, corresponding to the [M+H]^+ion obtained from PMT-8a; and at m/z=869.48, corresponding to the [M+H]^+ion obtained from PMT-8b.
In order to evaluate whether compounds (βp and d-βp) are stable in blood or hydrolyzed by plasma peptidases, we set up a chromatographic assay to evaluate compound concentration after incubation in human plasma.
Blood was drawn by venipuncture in vacutainer containing EDTA as an anticoagulant.
Two different samples from healthy volunteers were used. Plasma was separated by centrifugation and immediately used for the experiments. Each compound was dissolved in 500 uL plasma at a final concentration of 0.2 mM, and split into two aliquots, one of which was immediately analyzed to assess the basal compound level; the other was incubated at 37° C. for 3 hours under gentle shaking. In order to perform chromatographic analysis the samples were treated with 3 volumes of acetonitrile containing 1% formic acid, and then extracted by using the Ostro™ pass-through sample preparation system to remove proteins and phospholipids. Samples were dried under vacuum and then resuspended in 100 uL of 0.1% formic acid containing 5% acetonitrile, then directly injected onto the chromatographic column.
Chromatographic analyses were performed on a Water Acquity H-Class UPLC system (Waters, Milford, MA, USA), including a quaternary solvent manager (QSM), a sample manager with a flow through needle system (FTN), a photodiode array detector (PDA) and a single-quadruple mass detector with electrospray ionization source (ACQUITY QDa). Analyses were performed on a reverse phase C18 column (75 mm×3.2 mm i.d., 2.5 μm particle size). The mobile phase was solvent A, 0.1% formic acid in water, and solvent B, 0.1% formic acid in acetonitrile. The flow rate was 0.5 mL/min, the column temperature was set at 25° C. and the elution was performed by linearly increasing the concentration of solvent B up to 70% in 7 minutes. Mass spectrometric detection was performed in the positive electrospray ionization mode, using nitrogen as the nebulizer gas. Analyses were performed in the Total lon Current (TIC) mode with a mass range of 100-1200 m/z. The capillary voltage was 0.8 kV, cone voltage 8 V, ion source temperature 120° C. and probe temperature 600° C. Quantification of each compound was performed by Selected lon Recording (SIR) at m/z 917.88, corresponding to the […]

In series [2] the test system is m·3243A>G mt-tRNA^Leu(UUR) mutant cybrids. Description: Cell viability, Trypan blue dye exclusion, galactose vs glucose medium. It is filed as cell-based, human. The note with it: for viability of mutant cybrids vs non treated mutant cells: galactose medium. As to the method:
For viability assessment, cells were plated in either glucose or galactose medium. The reason for this is that a viability phenotype can be appreciated in cells growing on galactose, which forces cells to rely on mitochondrial respiration, but not in cells growing on glucose. After 24 hours incubation, the number of viable cells in the galactose medium was normalized to the number of viable cells in glucose at the same time point, which represents the normal growth condition. Data are compared with the value of mutant cells incubated with vehicle only. Mean±SEM of at least three independent experiments is shown.
For viability assessment, cells were plated in either glucose or galactose medium. The reason for this is that a viability phenotype can be appreciated in cells growing on galactose, which forces cells to rely on mitochondrial respiration, but not in cells growing on glucose. After 24 hours incubation the number of viable cells in galactose medium was normalized to the number of viable cells in glucose (that represents the normal growth condition) at the same time point. Data are compared with the value of mutant cells incubated with vehicle only. Means±SEM of at least two independent experiments are shown.
Previously established osteosarcoma derived (143B.TK-) cybrid cell lines from patients, which bear either the m·3243A>G mutation in mt-tRNA^Leu(UUR) or the m·8344A>G mutation in mt-tRNA^Lys, and controls were used (generous gift from Dr Valeria Tiranti and Dr Valerio Carelli).
Cybrid cells were cultured in Dulbecco's modified Eagle's medium (DMEM), supplemented with 4.5 g/l d-glucose, 10% foetal bovine serum (FBS), 2 mM I-glutamine, 50 μg/ML uridine, 100 U/mL penicillin, and […] (referred to as glucose medium) in a humidified atmosphere of 95% air and 5% CO2 at 37° C. For cell viability experiments, cells were grown either in glucose medium or in glucose-free DMEM, supplemented with 5 mM galactose, […] sodium pyruvate, and 10% FBS (referred to as galactose medium). The reason for using the latter medium is that a pathological phenotype can be appreciated in cells growing on galactose, which forces cells to rely on mitochondrial respiration, but not in cells growing on glucose.
[…] Cells were switched in glucose or galactose and after 24 hours cell viability was measured by the Trypan blue dye exclusion assay. Cells were harvested with 0.25% trypsin and 0.2% EDTA, washed, suspended in PBS in the presence of Trypan blue solution (Sigma-Aldrich) at 1:1 ratio and counted using a hemocytometer. The number of viable cells in galactose medium was expressed as a percentage of the number of cells in glucose medium.
To evaluate the effect of the compounds on viability, cybrids were grown in glucose-free medium supplemented with galactose (galactose medium), a condition that both forces cells to rely on the mt respiratory chain for ATP synthesis and causes a significant growth reduction in the presence of mutations.
To evaluate the effect of PMT and M-PMT on viability, cybrids were grown in glucose-free medium supplemented with galactose (galactose medium), a condition that both forces cells to rely on the mt respiratory chain for ATP synthesis and causes a significant growth reduction in the presence of mutations.

Setting [3] is: first experiment, plasma of two healthy volunteers, 37° C., 0.2 mM, 3 hours (FIG. 4A).
Where [4] appears, read: human, human plasma (EDTA) from healthy volunteers, first experiment, plasma of two healthy volunteers, 37° C., 0.2 mM, 3 hours (FIG. 4A).
Setting [5] is: second experiment, plasma of four healthy volunteers, 3 hours (FIG. 4B).

With `CC[C@@H](C)[C@@H](NC(=O)[C@@H](CC(C)C)NC(=O)[C@@H](C)NC(=O)[C@H](NC(=O)[C@@H](CCCNC(=N)N)NC(=O)[C@H]1CCCN1C(=O)[C@@H](CO)NC(=O)[C@@H](CC(C)C)NC(=O)[C@@H](Cc1ccccc1)NC(=O)[C@@H](CO)NC(=O)[C@@H](CCCCN)NC(=O)[C@H](N)CCCCN)[C@H](C)O)C(=O)N[C@H](CC(N)=O)C(=O)N[C@H](Cc1ccccc1)C(=O)N[C@H](CC(C)C)C(=O)N[C@@H](C(=O)O)C(C)C` [PMT, d(K)d(K)d(S)d(F)d(L)d(S)d(P)d(R)d(T)d(A)d(L)d(I)d(N)d(F)d(L)d(V)], the “peptide available after incubation in plasma” value was 100% in series [1] (setting [3]) and > 63% in series [1] (setting [5]). Moreover, the “detectable degradation in plasma” value is “does not undergo visible degradation; also recorded: did not undergo detectable degradation” in series [1] (first experiment, plasma of two healthy volunteers, 3 hours) and “did undergo detectable degradation” in series [1] (second experiment, plasma of four healthy volunteers, up to 72 h). Also, in series [1] (human plasma, FIG. 4), the “plasma stability compared with another peptide” value was “consistently higher stability than the β32_33 peptide; also recorded: higher plasma stability than the β32_33 peptide at all time points; also recorded: slower degradation than the β32_33 peptide”. The remaining at 3 h, 0.2 mM in series [1] (setting [4]) was 100%. For the same molecule, in series [1] (human, human plasma from healthy volunteers, second experiment, 6 h, read-out: peptide present after incubation in plasma), the remaining at 6 h, 0.2 mM is > 50%.

As to `CC[C@H](C)[C@H](NC(=O)[C@H](CC(C)C)NC(=O)[C@H](C)NC(=O)[C@@H](NC(=O)[C@H](CCCNC(=N)N)NC(=O)[C@@H]1CCCN1C(=O)[C@H](CO)NC(=O)[C@H](CC(C)C)NC(=O)[C@H](Cc1ccccc1)NC(=O)[C@H](CO)NC(=O)[C@H](CCCCN)NC(=O)[C@@H](N)CCCCN)[C@@H](C)O)C(=O)N[C@@H](CC(N)=O)C(=O)N[C@@H](Cc1ccccc1)C(=O)N[C@@H](CC(C)C)C(=O)N[C@H](C(=O)O)C(C)C` [β32_33, KKSFLSPRTALINFLV, reference compound], the “peptide available after incubation in plasma” value is given as 70% in series [1] (setting [3]) and 17% in series [1] (setting [5]). Moreover, the “degraded peptide after incubation in plasma” value in series [1] (first experiment, plasma of two healthy volunteers, 37° C., 3 hours (FIG. 4A)) was “at least 30%”. The remaining at 3 h, 0.2 mM in series [1] (setting [4]) amounted to 70%; in series [1] (human, human plasma from healthy volunteers, second experiment, plasma of four healthy volunteers, 3 hours (FIG. 4B)) it was 17%. In addition, in series [1] (human, human plasma (EDTA) from healthy volunteers, first experiment, plasma of two healthy volunteers, 37° C., 3 hours (FIG. 4A), read-out: degraded peptide after incubation in plasma), the metabolised at 3 h, 0.2 mM stood at 30%. In addition, the metabolised at 6 h, 0.2 mM in series [1] (human, human plasma from healthy volunteers, second experiment, 6 h, read-out: peptide degraded after incubation in plasma) was 90%. In series [1] (human, human plasma from healthy volunteers, second experiment, plasma of four healthy volunteers, 1.5 h (FIG. 4B), read-out: starting amount present after incubation in plasma), the remaining at 1.5 h, 0.2 mM was > 85%.

For “FRFKKKSFLSPRTALINFLV (SITE 1 d-Phenylalanine; SITE 2 d-Arginine; SITE 3 d-Phenylalanine; SITE 4 d-Lysine; SITE 5 d-Lysine; SITE 6 d-Lysine; SITE 7 d-Serine; SITE 8 d-Phenylalanine; SITE 9 d-Leucine; SITE 10 d-Serine; SITE 11 d-Proline; SITE 12 d-Arginine; SITE 13 d-Threonine; SITE 14 d-Alanine; SITE 15 d-Leucine; SITE 16 d-Isoleucine; SITE 17 d-Asparagine; SITE 18 d-Phenylalanine; SITE 19 d-Leucine; SITE 20 d-Valine) [M-PMT]”, the “viability of mutant cybrids vs non treated mutant cells” value is recorded as “significantly improves” in series [2] (0.5 μM, 24 hours (FIG. 6)); “significantly improved” in series [2] (2 μM, 24 hours (FIG. 6)); “significantly improved” in series [2] (5 μM, 24 hours). For the same molecule, the “lower concentration improving viability with respect to PMT” value in series [2] (m·3243A>G mutant cybrids, FIG. 6) came out at 10 fold.
